From US11524962B2, “Substituted pyrrolo[2,3-d]pyrimidines as inhibitors of protein arginine methyl transferase 5 (PRMT5)” (PRELUDE THERAPEUTICS, INCORPORATED, priority 2017, dated 2022)

Legend:
[1] = target: T1, PRMT5/MEP50 complex (Homo sapiens (Human), UniProt O14744); assay: HotSpot Assay; format: biochemical
Protocol: HotSpot Assay. Compounds were solubilized and 3-fold diluted in 100% DMSO. […] Standard reactions were performed in a total volume of 50 μl in assay buffer, with histone H2A (5 μM final) as substrate. To this was added the PRMT5/MEP50 complex diluted to provide a final assay concentration of 5 nM and the compounds were allowed to preincubate for 15 to 20 minutes at room temperature. The reaction was initiated by adding S-[3H-methyl]-adenosyl-L-methionine (PerkinElmer) to final concentration of 1 μM. Following a 60 minutes incubation at 30° C., the reaction was stopped by adding 100 μL of 20% TCA. Each reaction was spotted onto filter plate (MultiScreen FB Filter Plate, Millipore), and washed 5 times with PBS buffer, Scintillation fluid was added to the filter plate and read in a scintillation counter. IC50 values were determined by fitting the data to the standard 4 parameters with Hill Slope using GraphPad Prism software. This procedure generated the HotSpot data in Table 7.

[2] = tested on: U-87 MG cells; assay: Cell proliferation assay in U-87 MG cells; format: cell-based; details: Homo sapiens, 240 h, day 10, read-out: Prolif_U87 IC50
Protocol: One day before experiment, Granta-519 cells were passaged to a density of 0.5×10^6 cells/ml. U-87 MG cells were trypsinized and 2,000 cells were seeded into 96-well plates and allow to grow overnight. On the day of experiment (day 0), Granta-519 Cells were spun down at 1,500 rpm for 4 min, resuspended in fresh medium to 0.5×10^6 cells/ml and 190 ul of cells were added to 96 well plates. For U-87 MG cells, old medium was removed and replaced with 190 uL fresh medium. Compound working stocks were first diluted at 1:50 with fresh medium in 96 well plate and 10 μL of diluted drugs were added to 96 well plates containing cells and incubated for 3 days. DMSO was used a vehicle control.
One day 3, 50 uL of Granta-519 cells were transferred to a new 96-well plate and 140 uL fresh medium was added. For U-87 MG cells, old medium was removed and replaced with 190 uL fresh medium. Compound working stocks were freshly diluted at 1:50 with medium and 10 μL of diluted drugs were added to cells and grow for 3 additional days. The same process was repeated on day 6. Cells were allowed to grow for additional 4 days.
On day 10, 100 uL Granta-519 cells were transferred to a new 96 well plate and 10 μL of Cell Counting Kit-8 (CCK-8, Jojindo, CK04-13) solution was added. For U-87 MG cells, old medium was removed and replaced with 100 uL fresh medium and 10 uL CCK-8 solution was added. Plates were incubated in CO2 incubator for 2 hours (Granta-519 cells) or 30 min (U-87 MG cells) and OD450 values were measured with a microplate reader (iMark microplate reader, Bio-Rad). Percentage of viable cells, relative to DMSO vehicle control, were calculated and plotted in Graphpad Prism ([Inhibitor]vs. normalized response−Variable slope) to determine proliferation IC50 values on day 10.
These cell proliferation procedures produced the data in Table 7.

[3] = target: T1, PRMT5/MEP50 complex; assay: Flash plate assay; format: biochemical; details: read-out: Flash Plate IC50
Protocol: Flash plate assay. Compounds were solubilized, and 3-fold diluted in 100% DMSO. […] Standard reactions were performed in a total volume of 30 μl in assay buffer, with 300 nM histone H4 based AcH4-23 (Anaspec: AS-65002) as substrate. To this was added the PRMT5/MEP50 complex diluted to provide a final assay concentration of 2.5 nM and the compounds were allowed to preincubate for 20 minutes at 37° C. The reaction was initiated by adding S-[3H-methyl]-adenosyl-L-methionine (PerkinElmer: NET155001MC) to final concentration of 1 μM. Following a 30 minutes incubation at 37° C., the reaction was stopped by adding 25 μL of 8M Guanidine HCl. Prepare streptavidin YSI SPA beads (Perkinelmer: RPNQ0012) at 0.3 mg/mL in assay buffer. To each reaction, add 150 μL of SPA beads suspension, and incubated while shaking at room temperature for 30 minutes. The plate was centrifuged at 100×g for 30 second before reading in a scintillation counter. IC50 values were determined by fitting the data to the standard 4 parameters with Hill Slope using GraphPad Prism software. This procedure produced the Flash Plate data in Table 7.

[4] = tested on: Symmetric Di-Methyl Arginine (sDMA) marks in U-87 MG cells; assay: sDMA Western blot / In Cell Western in U-87 MG cells; format: cell-based; details: Homo sapiens, 72 h, 3 days, read-out: sDMA_U87 IC50
Protocol: (§1) Compound titration and cell culture: Compounds were dissolved in DMSO to make 10 mM stock and 3-fold series dilutions were further conducted to make working stocks top at 1 mM. Granta-519 cells were maintained in PRMI 1640 (Corning Cellgro, Catalog #: 10-040-CV) supplemented with 10% v/v FBS (GE Healthcare, Catalog #: SH30910.03) and U-87 MG cells were maintained in DMEM (Corning Cellgro, Catalog #: 10-013-CV) with 10% FBS and 2 mM Glutamin (Corning Cellgro, Catalog #25005CV).
(§2) To determine enzyme inhibition IC50 values in Granta-519 and U-87 MG cells using Western Blot analysis. One day before experiment, Granta-519 cells were passaged to a density of 0.5×10^6 cells/ml. U-87 MG cells were trypsinized and 4×10^5 cells were seeded into 6-well plates and allow to grow overnight. The next day, Granta-519 cells were spun down at 1,500 rpm for 4 min, resuspend in fresh medium at 0.5×10^6 cells/ml and 3 mL of culture (1.5×10^6 cells) were seeded into 6 well plate. Eight-point, 3-fold serial dilutions of compound working stocks were added to cells (3 ul, 1:1,000 dilution, DMSO concentration was 0.1%; final top concentration at 1 uM) and incubated for 3 days. Cells incubated with DMSO was used as a vehicle control.
(§3) Cells were harvested 3 days later, resuspended in 15 uL PBS, lysed in 4% SDS, and homogenized by passing through homogenizer column (Omega Biotek, Catalog #: HCR003). Total protein concentrations were determined by BCA assay (ThermoFisher Scientific, Catalog #: 23225). Lysates were mixed with 5× Laemmli buffer and boiled for 5 min. Forty ug of total protein was separated on SDS-PAGE gels (Bio-Rad, catalog #: 4568083, 4568043), transferred to PVDF membrane, blocked with 5% dry milk (Bio-Rad, Catalog #: 1706404) in TBS with 0.1% v/v Tween 20 (TBST) for 1 hour at room temperature (RT), and incubated with primary antibodies (sDMA: Cell signaling, Catalog #: 13222, 1:3,000; β-Actin: sigma, Catalog #: 1:5,000) in 5% dry milk in TBST at 4° C. overnight. The next day, membranes were washed with TBST, 5×5 min, and incubated with HRP conjugated seconded antibody (GE Healthcare; Catalog #: NA934-1ML, NA931-1ML; 1:5,000) for 2 hours at RT, followed by 5×5 min washes with TBST, and incubation with ECL substrates (Bio-Rad, Catalog #: 1705061, 1705062). Chemiluminescent signal was captured with Fluochem HD2 imager (Proteinsimple). SmD3me2s bands were quantified by ImageJ. Signals were normalized to β-Actin and DMSO control. IC50 values were calculated using Graphpad Prism ([Inhibitor]vs. normalized response−Variable slope).
U87-MG cells were trypsinized one day before the experiment, seeded into a 384-well plate at 2500 cells/well using a Multidrop Combi Dispenser (ThermoFisher) and allowed to grow overnight. The next day (day 0), a series of 9-point, 3-fold serial dilutions of compounds were prepared and dispensed into wells from a 1 mM stock solution using a TECAN digital dispenser (D300e) and the DMSO % concentration was normalized to 0.1%. Three days later, media was removed, and cells were processed as described above.
To determine IC50 values, the ratio for each well was calculated (sDMA 800 nm value/DRAQ5 700 nm value). Each plate included 28 negative control wells (DMSO only, minimum inhibition) and 18 positive control wells for maximum inhibition (treated with 3 uM of a reference compounds, background wells). The average ratios of minimum and maximum inhibition controls were calculated and used to determine the percentage of sDMA, relative to DMSO, for each well in the plate.
These procedures generated the sDMA data in Table 7.

[5] = tested on: Symmetric Di-Methyl Arginine (sDMA) marks in Granta-519 cells; assay: sDMA Western blot / In Cell Western in Granta-519 cells; format: cell-based; details: Homo sapiens, 72 h; Granta-519, 3 days; read-out: sDMA_Granta IC50
Protocol: as §1, §2, §3
sDMA In Cell Western procedure (ICW): Granta-519 cells were passaged to a density of 0.5×10^6 cells/ml one day before experiments and allowed to grow overnight. The next day (day 0), cells were spun down at 1,500 rpm for 4 min, resuspended in fresh medium to 0.2×10^6 cells/ml and 100 uL of cells were added to 384-well plates using a Multidrop Combi Dispenser (ThermoFisher). A series of 9-point, 3-fold serial dilutions of compounds were prepared and dispensed into wells from a 1 mM stock solution using a TECAN digital dispenser (D300e) and the DMSO % concentration was normalized in each well to 0.1%. DMSO and 3 uM of reference compounds were used as negative (minimum inhibition) and positive (maximum inhibition) controls, respectively. After 3 days of incubation, cells were first resuspended and then 80 ul of cells were transferred to a Poly-D-lysine 384-well plate (Corning, Catalog #354663), followed by 30 minutes incubation at room temperature (RT) and 5 additional hours of incubation at 37° C. […]

T1 sequence (O14744 whole entry): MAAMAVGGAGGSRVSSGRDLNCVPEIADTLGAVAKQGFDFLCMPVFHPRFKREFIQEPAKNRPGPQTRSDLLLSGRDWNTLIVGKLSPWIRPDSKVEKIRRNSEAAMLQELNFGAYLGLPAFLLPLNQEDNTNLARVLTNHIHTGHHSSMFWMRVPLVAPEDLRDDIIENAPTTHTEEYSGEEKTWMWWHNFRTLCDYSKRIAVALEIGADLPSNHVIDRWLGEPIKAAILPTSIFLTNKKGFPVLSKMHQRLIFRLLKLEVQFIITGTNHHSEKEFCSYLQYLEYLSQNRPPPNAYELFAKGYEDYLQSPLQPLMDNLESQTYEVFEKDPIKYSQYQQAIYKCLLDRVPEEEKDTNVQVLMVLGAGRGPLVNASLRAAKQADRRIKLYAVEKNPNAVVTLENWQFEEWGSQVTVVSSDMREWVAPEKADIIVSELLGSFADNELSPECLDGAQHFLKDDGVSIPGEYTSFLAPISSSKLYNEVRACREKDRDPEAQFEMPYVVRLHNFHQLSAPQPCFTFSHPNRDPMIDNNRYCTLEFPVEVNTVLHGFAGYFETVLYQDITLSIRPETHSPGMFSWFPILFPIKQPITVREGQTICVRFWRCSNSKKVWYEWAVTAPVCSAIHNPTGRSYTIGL
T1 sequence (Q9BQA1 whole entry partner): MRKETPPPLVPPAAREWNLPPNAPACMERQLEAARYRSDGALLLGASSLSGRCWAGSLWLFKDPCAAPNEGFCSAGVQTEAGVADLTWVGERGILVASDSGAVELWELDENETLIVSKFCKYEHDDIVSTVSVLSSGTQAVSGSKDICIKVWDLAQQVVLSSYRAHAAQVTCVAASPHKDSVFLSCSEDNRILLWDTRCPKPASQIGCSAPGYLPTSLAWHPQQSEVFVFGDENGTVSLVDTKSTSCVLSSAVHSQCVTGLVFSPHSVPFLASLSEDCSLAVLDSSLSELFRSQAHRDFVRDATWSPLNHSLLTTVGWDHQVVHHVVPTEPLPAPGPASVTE

| SMILES | IC50 [1] [nM] | IC50 [2] [µM] | IC50 [3] [nM] | IC50 [4] [nM] | IC50 [5] [nM] |
| --- | --- | --- | --- | --- | --- |
| Cc1ncnc2c1ccn2[C@@H]1O[C@H]([C@](C)(O)c2ccc3c(c2)CC3)[C@@H](O)[C@H]1O [Example 9, (2S,3S,4R,5R)-2-((R)-1-(bicyclo[4.2.0]octa-1(6),2,4-trien-3-yl)-1-hydroxyethyl)-5-(4-methyl-7H-pyrrolo[2,3-d]pyrimidin-7-yl)tetrahydrofuran-3,4-diol] | 5 | 0.388 | 24.3 | 110 | – |
| Cc1ncnc2c1ccn2[C@@H]1O[C@H]([C@H](O)c2ccc3c(c2)CCC3)[C@@H](O)[C@H]1O [Example 44, (2R,3S,4R,5R)-2-((R)-(2,3-dihydro-1H-inden-5-yl)(hydroxy)methyl)-5-(4-methyl-7H-pyrrolo[2,3-d]pyrimidin-7-yl)tetrahydrofuran-3,4-diol] | – | 1.16 | 23.7 | 113 | – |
| COCCc1ncnc2c1ccn2[C@@H]1O[C@H]([C@H](O)c2ccc3c(c2)CC3)[C@@H](O)[C@H]1O [Example 48, (2R,3S,4R,5R)-2-((R)-bicyclo[4.2.0]octa-1(6),2,4-trien-3-yl(hydroxy)methyl)-5-(4-(2-methoxyethyl)-7H-pyrrolo[2,3-d]pyrimidin-7-yl)tetrahydrofuran-3,4-diol] | – | 10 | 74 | 758 | 337 |
| O[C@@H]1[C@H](O)[C@@H]([C@H](O)c2ccc3c(c2)CC3)O[C@H]1n1ccc2c(CF)ncnc21 [Example 49, (2R,3S,4R,5R)-2-((R)-bicyclo[4.2.0]octa-1(6),2,4-trien-3-yl(hydroxy)methyl)-5-(4-(fluoromethyl)-7H-pyrrolo[2,3-d]pyrimidin-7-yl)tetrahydrofuran-3,4-diol] | – | 10 | 78 | 625 | 375 |
